What all share (assay): DTP human tumour cell line panel, 48 h
For experiment [1], the system named is NCI/ADR-RES ovarian.
For experiment [2], the system named is SF-268 CNS.
The test system of experiment [3] is NCI-H460 lung.
Experiment [4] deals with RPMI-8226 leukemia.
Experiment [5] deals with MDA-MB-435.
Experiment [6] relates to MDA-MB-231 breast.
For experiment [7], the system named is SNB-75 CNS.
The subject of experiment [8] is MDA-N.
The subject of experiment [9] is NCI-H23 lung.
Experiment [10] relates to RXF 393 renal.
The subject of experiment [11] is SN12C renal.
For experiment [12], the system named is SW-620 colon.
Experiment [13] concerns OVCAR-3 ovarian.
Experiment [14] deals with MOLT-4 leukemia.
Experiment [15] deals with HL-60(TB) leukemia.
Experiment [16] has as its system PC-3 prostate.
Experiment [17] deals with SK-MEL-28 melanoma.
The test system of experiment [18] is HCT-15 colon.
The test system of experiment [19] is HT29 colon.
Experiment [20] relates to SK-MEL-2 melanoma.

Structures are written as SMILES.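 Dose response: 5 concentrations. Exposure: 48 h. Format: 96-well plates. Endpoint: linear interpolation; highest concentration if not reached. TGI denotes the concentration required for complete inhibition of growth.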

Our source for the TGI values is PubChem BioAssay (NCI).

Usually TGI stands for the concentration giving total growth inhibition. Low values mean more potent growth arrest, high ones less potent growth arrest.

As to `c1ccc2c3nnc(c2c1)SCCCSc1nnc(c2ccccc12)SCCCS3`, the TGI was 86.4 µM in [1]; more than 100 µM in [2]; more than 100 µM in experiment [3]; more than 100 µM in experiment [4]; more than 100 µM in experiment [5]; 48.6 µM in [6]. The TGI is 50.3 µM in [7]; more than 100 µM in experiment [8]; more than 100 µM in [9]; 94 µM in experiment [10]; more than 100 µM in experiment [11]; more than 100 µM in experiment [12]. Moreover, the TGI in [13], in [14], in experiment [15], in [16], in experiment [17] and in experiment [18] was more than 100 µM throughout. The TGI in [19] and in [20] was more than 100 µM in each case.
With `COC(=O)c1ccc(/C=C2\Oc3cc(O)ccc3C2=O)cc1`, the TGI in experiment [1], in [2], in experiment [3], in [4], in experiment [5] and in experiment [6] was more than 100 µM in each case. The TGI in experiment [7] is more than 100 µM; in experiment [8], more than 100 µM; in experiment [9], more than 100 µM; in [10], 77.3 µM; in experiment [11] it was more than 100 µM; in experiment [12], more than 100 µM. Further, the TGI in [13], in experiment [14], in experiment [15], in experiment [16], in experiment [17] and in [18] was more than 100 µM in each case.
For `CNN1C(=O)c2c(C)c(C)c(C#N)c(N)c2C1=O`, the TGI in experiment [1], in [2], in experiment [3], in experiment [4], in [5] and in [6] was more than 100 µM each time. Further, the TGI in [7], in experiment [8], in [10], in experiment [11], in experiment [12] and in experiment [13] was more than 100 µM each time. Further, the TGI in experiment [14], in experiment [15], in [16], in [17], in [18] and in [20] was more than 100 µM in each case.
Take `CCOC(=O)C(NC(=O)c1ccccc1)(Nc1ccc(S(=O)(=O)Nc2cc(C)nc(C)n2)cc1)C(F)(F)F` (stereo unspecified): the TGI in [1], in [2], in [3], in [4], in experiment [5] and in experiment [6] was more than 100 µM throughout. The total growth inhibition concentration (TGI) in [7], in experiment [8], in experiment [9], in experiment [10], in [11] and in experiment [12] was more than 100 µM throughout. In addition, the TGI in experiment [13], in experiment [14], in experiment [15], in [16], in [17] and in [18] was more than 100 µM throughout. Besides, the total growth inhibition concentration (TGI) in experiment [19] and in [20] was more than 100 µM in each case.
As to `Cc1cccc(C)c1N1C(=O)C2c3[nH]c4ccccc4c3C3CCC(C(C)(C)C)CC3C2C1=O` (stereo unspecified), the TGI in [1] is 48.8 µM; in [2], 39 µM; in experiment [4] it was more than 100 µM; in experiment [5] it was more than 100 µM; in experiment [6], 24.4 µM; in [8], 24.4 µM. The TGI in experiment [9] was 39.8 µM; in experiment [10], 26.3 µM; in experiment [11], 21.8 µM; in experiment [12] it was 21 µM; in [13], 30.3 µM; in [14] it was more than 100 µM. In addition, the TGI in [15] came to 35.5 µM; in experiment [16], 20.6 µM; in [17], 45.5 µM; in experiment [18], 24.2 µM; in [19], 32 µM; in experiment [20], 33.7 µM.
`Cc1ccc([N+](=O)[O-])cc1S(=O)(=O)Nc1ccc(C2=NOC(c3ccccc3O)C2)cc1` (stereo unspecified): the concentration for total growth inhibition (TGI) is 8.53 µM in [1]; more than 100 µM in experiment [2]; 25.3 µM in [3]; more than 100 µM in experiment [4]; 3.22 µM in experiment [5]; more than 100 µM in experiment [6]. Moreover, the concentration for total growth inhibition (TGI) in experiment [7] is 55.2 µM; in experiment [8], 4.17 µM; in [9], 98.4 µM; in experiment [10], 11.1 µM; in [11], more than 100 µM; in experiment [12] it was more than 100 µM. For the same molecule, the TGI in [13] is 24.1 µM; in [14], 9.04 µM; in experiment [15], 21.4 µM; in [16], more than 100 µM; in experiment [17], more than 100 µM; in experiment [18], 85.3 µM. For the same molecule, the TGI was 30.8 µM in [19] and more than 100 µM in [20].
In the case of `Nc1nnc2oc3ccc4ccccc4c3cc1-2`, the concentration for total growth inhibition (TGI) in experiment [1] was more than 100 µM; in experiment [2], more than 100 µM; in experiment [3], more than 100 µM; in [4], more than 100 µM; in experiment [5] it was more than 100 µM; in experiment [6], 97.1 µM. Also, the TGI in experiment [7] was 81 µM; in experiment [8], more than 100 µM; in experiment [9], more than 100 µM; in experiment [10], more than 100 µM; in experiment [11] it was 87 µM; in [12], more than 100 µM. In addition, the concentration for total growth inhibition (TGI) in experiment [13] is more than 100 µM; in [14], more than 100 µM; in experiment [15], 67.9 µM; in experiment [16] it was more than 100 µM; in [17], more than 100 µM; in [18], more than 100 µM. Moreover, the TGI in [19] was more than 100 µM; in [20] it was 72.5 µM.
With `NCCNCCCNC(=O)c1cc(-c2ccccc2)nc2ccccc12`, the TGI in experiment [1] was more than 100 µM; in [2], more than 100 µM; in experiment [3] it was more than 100 µM; in experiment [4] it was more than 100 µM; in [5], 43.5 µM; in experiment [6], more than 100 µM. For the same molecule, the concentration for total growth inhibition (TGI) in experiment [8] was 66.8 µM; in experiment [9] it was more than 100 µM; in experiment [10], more than 100 µM; in experiment [11], more than 100 µM; in experiment [12] it was more than 100 µM; in experiment [13], more than 100 µM. For the same molecule, the TGI in experiment [14] is 52.3 µM; in [15], more than 100 µM; in [16], more than 100 µM; in [17], 33 µM; in experiment [18] it was more than 100 µM; in experiment [19] it was more than 100 µM. The same molecule had a concentration for total growth inhibition (TGI) in experiment [20] of 42.7 µM.
`Cc1ccc(S(=O)(=O)N/N=C2\CC(C)OC3=C2CCCCCC3)cc1` (stereo unspecified): the concentration for total growth inhibition (TGI) is 44.7 µM in [1]; 38.4 µM in experiment [2]; more than 100 µM in experiment [3]; 82.5 µM in [4]; 34.6 µM in experiment [5]; 39.4 µM in experiment [6]. Besides, the total growth inhibition concentration (TGI) in [7] is 52.4 µM; in experiment [8], more than 100 µM; in experiment [9] it was 41.6 µM; in experiment [10] it was 32.4 µM; in [11], 34.4 µM; in experiment [12], 36.4 µM. The TGI in [13] came out at 36 µM; in [14], 55.9 µM; in experiment [15], 54.6 µM; in experiment [16] it was 38.9 µM; in experiment [17] it was 39.3 µM; in experiment [19], 34.9 µM.
`O=C(NNC(=O)c1ccccc1O)c1ccco1`: the TGI in experiment [1], in experiment [2], in experiment [3], in [4], in [5] and in [6] was more than 100 µM each time. Moreover, the total growth inhibition concentration (TGI) in experiment [7], in [8], in experiment [10], in [11], in experiment [12] and in [13] was more than 100 µM in each case. The TGI in experiment [14], in experiment [15], in experiment [16], in experiment [17], in experiment [18] and in experiment [19] was more than 100 µM in each case. Further, the total growth inhibition concentration (TGI) in experiment [20] is more than 100 µM.
Take `C[N+](C)(C)CCOP(=O)([O-])OCCNC(=O)c1ccc2ccccc2c1`: the TGI in experiment [1], in experiment [2], in experiment [4], in [5], in experiment [6] and in [7] was more than 100 µM in each case. The TGI in [8], in experiment [9], in experiment [10], in experiment [11], in experiment [12] and in experiment [13] was more than 100 µM in each case. Besides, the TGI in [14], in experiment [15], in experiment [16], in experiment [17], in experiment [18] and in [19] was more than 100 µM in each case.
For the molecule `O=c1oc2c/c(=C\c3ccccn3)c(=O)c3cccc1c3-2`, the TGI in experiment [1], in experiment [2], in experiment [3], in experiment [4], in experiment [5] and in [6] was more than 100 µM in each case. Also, the TGI in experiment [8] is more than 100 µM; in experiment [9], more than 100 µM; in experiment [10] it was 37.7 µM; in [11] it was more than 100 µM; in experiment [12] it was more than 100 µM; in experiment [13] it was 39.4 µM. Also, the total growth inhibition concentration (TGI) in [14], in experiment [15], in [16], in experiment [17], in experiment [18] and in experiment [19] was more than 100 µM each time.
